This note sets out measurements from patent US7601702B2, “Dutpase Inhibitors” (Medivir AB, priority 2004, dated 2009).

pEC50, pKi: −log10 of the molar value. Converted amounts (≈) assume the structure as drawn. Structures can show the parent of a compound that is named as a salt. Where two headings read alike, the source gives them in different places.

One data set relates to P. falciparum K1. Briefly: Malaria whole cell assay, K1 strain. To be noted: Plasmodium falciparum. Type of data set: cell-based. As to the method: (§1) Two strains of P. falcipanum are used in this study: The drug sensitive NF54 (an airport strain of unknown origin) and K1 (Thailand, chloroquine and pyrimethamine resistant). The strains are maintained in RPMI-1640 medium with 0.36 mM hypoxanthine supplemented with 25 mM HEPES, 25 mM NaHCO3, neomycin (100 U/ml) and Albumax® (lipid-rich bovine serum albumin) (GIBCO, Grand Island, N.Y.) (5 g/l), together with 5% washed human A+ erythrocytes. All cultures and assays are conducted at 37° C. under an atmosphere of 4% CO2, 3% O2 and 93% N2. Cultures are kept in incubation chambers filled with the gas mixture. Subcultures are diluted to a parasitaemia of 0.1-0.5% and the medium changed daily.
(§2) Antimalarial activity is assessed using an adaptation of the procedures described by Desjardins et al. (Antimicrob. Agents Chemother. 16(6):710-8, 1979), and Matile and Pink (In: Lefkovits, I. and Pernis, B. (Eds.). Immunological Methods. Academic Press, San Diego, pp. 221-234, 1990).
(§3) After use the stocks are kept at −20° C. The compound is further diluted to the appropriate concentration using complete medium without hypoxanthine. […]
(§4) After 48 hours of incubation at 37° C., 0.5 μCi ^3H-hypoxanthine is added to each well. […] The radioactivity is counted using a Betaplate™ liquid scintillation counter (Wallac, Zurich, Switzerland). […] From the sigmoidal inhibition curves IC50 values are calculated. […]

Another data set relates to P. falciparum NF54. Briefly: Malaria whole cell assay, NF54 strain. Type of data set: cell-based. As to conditions: Plasmodium falciparum. On the procedure:
as §1, §2, §3, §4

For data set [1], the target named is T1, Plasmodium falciparum dUTPase (Plasmodium falciparum, UniProt Q8II92).
T1 construct: made in house; host or cells: E. coli BL21 (DE3)
T1 sequence (Q8II92 1-173): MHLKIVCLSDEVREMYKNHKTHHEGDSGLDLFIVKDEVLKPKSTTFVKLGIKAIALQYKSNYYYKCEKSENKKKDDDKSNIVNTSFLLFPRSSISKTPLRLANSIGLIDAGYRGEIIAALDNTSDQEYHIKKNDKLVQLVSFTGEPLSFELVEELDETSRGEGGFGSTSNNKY
Briefly: Malaria enzyme assay: inhibition of Plasmodium falciparum dUTPase. Type of data set: biochemical. As to the method:
Inhibition of Plasmodium falciparum dUTPase
2′-dUTP, was purchased from Pharmacia. MgCl2, BSA, and the pH indicator cresol red were from Sigma. The buffer N,N-bis(2-hydroxyethyl)glycine (BICINE) was obtained from USB (United States Biochemical), Ohio. All the concentrations of nucleotides were calculated spectrophotometrically (HP-8453, Hewlett Packard) at 280 nm, using the extinction coefficient (ε280 nm=1.75 ml mg^−1cm^−1). Other chemicals used in these experiments were of the highest quality available.
Recombinant P. falciparum dUTPase was purified from E. coli BL21 (DE3) cells transformed with pET-PFdut. Pellets from a liter of culture were resuspended in a solution consisting of buffer A (20 mM MES pH 5.5, 50 mM NaCl, 1 mM DTT) plus the protease inhibitors 1 mM PMSF, 20 μg/ml leupeptin and 1 mM benzamidine. Purification was carried out in a cold room (4° C.). The soluble crude extract was obtained by sonication in a Vibra-cell (Sonics and Materials Inc. Danbury, Conn., USA) and centrifugation at 14000×g. The extract was loaded onto a phosphocellulose column (Whatman) pre-equilibrated with buffer A at a flow rate of 1 ml/min. After washing the column with 100 ml of buffer A, elution was performed using a linear NaCl gradient of 50 to 1000 mM. Peak fractions with a low concentration of contaminating protein, as judged by 15% SDS-PAGE gels, were pooled and then loaded and chromatographed on a Superdex 200 column at a flow rate of 0.5 ml/min. The column was equilibrated with buffer B (50 mM Bicine, 1 mM DTT, 10 mM MgCl2). Peak fractions were pooled and concentrated to about 5 mg/ml by ultrafiltration in a Centripep tube (Amicon) and stored at −80° C.
Nucleotide hydrolysis was monitored by mixing enzyme and substrate with a rapid kinetic accessory (Hi-Tech Scientific) attached to a spectrophotometer (Cary 50) and connected to a computer for data acquisition and storage. Protons, released through the hydrolysis of nucleotides, were neutralised by a pH indicator in a weak buffered medium with similar pKa and monitored spectrophotometrically at the absorbance peak of the basic form of the indicator. Absorbance changes were kept within 0.1 units. The indicator/buffer pair used was cresol red/BICINE ([…], pH 8, 573 nm). The measurements were performed at 25° C., and the solutions were previously degassed. Assays contained 30 nM purified recombinant enzyme, 50 μM dUTP, 5 mM MgCl2 and 2.5 mM DTT, 1.25 mg/ml BSA and 100 mM KCl. Indicator absorbance changes corresponding to complete hydrolysis of nucleotides were recorded in the computer, and the kinetic parameters Vmax and Kmapp (or slope) were calculated by fitting the data to the integrated Michaelis-Menten equation (Segel, 1975). [dUMP]/t=Vmax−Kmap/t ln [dUTP]([dUTP]−[dUMP])
Solutions of potential inhibitors were prepared at 10 mg/ml and tested routinely at concentrations of […]. A wider range of concentrations was further tested when necessary for Ki determination. The different apparent Km values attained were plotted against inhibitor concentration and Ki values were obtained according to the following equation: […]

In the next data set the test system is Plasmodium falciparum. Briefly: Malaria whole cell assay (cell culture). Type of data set: cell-based. To be noted: read-out: ED50 (the source's name). As to the method: as §1, §2
After use the stocks are kept at −20° C. The compound is further diluted to the appropriate concentration using complete medium without hypoxanthine.
Assays are performed in sterile 96-well microtiter plates, each well containing 200 μl of parasite culture (0.15% parasitemia, 2.5% hematocrit) with or without serial drug solutions. Seven 2-fold dilutions are used covering a range from 5 μg/ml to 0.078 μg/ml.
After 48 hours of incubation at 37° C., 0.5 μCi ^3H-hypoxanthine is added to each well. Cultures are incubated for a further 24 h before they are harvested onto glass-fiber filters and washed with distilled water. The radioactivity is counted using a Betaplate™ liquid scintillation counter (Wallac, Zurich, Switzerland). […] From the sigmoidal inhibition curves IC50 values are calculated.
K1 strain is used. The compounds are tested at 7 concentrations (5000 to 78 ng/ml). Artemisinin and chloroquine are included as reference drugs.

[2] abbreviates: Plasmodium falciparum enzyme, read-out: Ki.

Regarding `COc1ccc(C(NC[C@H]2O[C@@H](n3ccc(=O)[nH]c3=O)CC2O)(c2ccccc2)c2ccccc2)cc1` (stereo partly shown) (as salt: salt) [Example 23, 5′-paraMethoxytritylamino-2′,5′-dideoxyuridine], the melting point (as a rule, the temperature, or range, at which the solid turns liquid) lay in the range of 140 to 142 °C.

`O=c1ccn(C2CC(O)C(CNC(c3ccccc3)(c3ccccc3)c3ccncc3)O2)c(=O)[nH]1` (stereo not shown) [Example 8, 5′-(4-pyridydiphenylmethyl)amino-2′,5′-dideoxyuridine] came in with a melting point of 131 to 133 °C.

Compound `COc1ccc(C(OC[C@H]2O[C@@H](n3ccc(=O)[nH]c3=O)CC2O)(c2ccccc2)c2ccccc2)cc1` (stereo partly shown) [Example 20, 5′-O-paramethoxytrityl-2′-deoxyuridine] yielded a melting point of 96 to 97 °C.

`N#Cc1ccc(C(NC[C@H]2O[C@@H](n3ccc(=O)[nH]c3=O)C[C@@H]2O)(c2ccccc2)c2ccccc2)cc1` [Example 22, 5′-[(4-cyanotrityl)amino]-2′,5′-dideoxyuridine] had a melting point of 160 to 163 °C.

The compound `O=c1ccn([C@H]2C[C@H](O)[C@@H](CNC(c3ccccc3)(c3ccccc3)c3ccccc3Cl)O2)c(=O)[nH]1` [Example 24, 5′-[(2-chlorotrityl)amino]2′,5′-dideoxyuridine] had a melting point of 129 to 131 °C.

`O=c1ccn(C2CC(O)C(CNC3(c4ccccc4)c4ccccc4Oc4ccccc43)O2)c(=O)[nH]1` (stereo not shown) [Example 26, 5′-Pixylamino-2′,5′-dideoxyuridine]: the melting point was in the range of 117 to 119 °C.

Take `C[C@@H]1CC[C@H]2[C@@H](C)C(=O)O[C@@H]3O[C@@]4(C)CC[C@@H]1[C@]32OO4` [artemisinin]: the IC50 – broadly, the concentration needed to halve the response being measured – in the data set on P. falciparum K1 (K1 strain, read-out: IC50) amounted to 0.8 ng/mL (≈ 2.83 nM); in the data set on P. falciparum NF54 (NF54 strain, read-out: IC50), 1.9 ng/mL (≈ 6.73 nM).

For the compound `CCN(CC)CCCC(C)Nc1ccnc2cc(Cl)ccc12` (stereo not shown) [chloroquine], the IC50 in the data set with P. falciparum K1 (K1) was 48 ng/mL (≈ 150 nM); with P. falciparum NF54 (NF54) it was 2.9 ng/mL (≈ 9.07 nM).

For the compound `O=c1ccn([C@H]2C[C@H](O)[C@@H](CNC(c3ccccc3)(c3ccccc3)c3ccccc3)O2)c(=O)[nH]1` [drawing 55 Ph3CNH, 5′-Tritylamino-2′,5′-dideoxyuridine], in data set [1] (setting [2]), the pKi (commonly −log10 of the Ki, conventionally taken in molar units) was 6.70. For the same compound, the pEC50 in the data set on Plasmodium falciparum is 5.35.

For the compound `O=c1ccn([C@H]2C[C@H](O)[C@@H](COC(c3ccccc3)(c3ccccc3)c3ccccc3)O2)c(=O)[nH]1` [drawing 55 Ph3CO, 5′-O-trityl-2′-deoxyuridine], in data set [1] (setting [2]), the pKi was 5.74. Besides, the pEC50 in the data set on Plasmodium falciparum was 5.22.

For `CC(C)(C)[Si](OC[C@H]1O[C@@H](n2ccc(=O)[nH]c2=O)C[C@@H]1O)(c1ccccc1)c1ccccc1` [drawing 55 TBDPSO, 5′-O-tert-Butyldiphenylsilyl-2′-deoxyuridine], the pKi in data set [1] (setting [2]) is 5.38. Further, the pEC50 with Plasmodium falciparum is 5.18.

In the case of `O=c1ccn([C@H]2C[C@H](O)[C@@H](CO[Si](c3ccccc3)(c3ccccc3)c3ccccc3)O2)c(=O)[nH]1` [drawing 55 TPSO, 5′-O-Triphenylsilyl-2′-deoxyuridine], the pKi in data set [1] (setting [2]) is 5.55. Besides, the pEC50 with Plasmodium falciparum was 5.96.

As for `CC(C)(C)[Si](C)(C)OC1CC(n2ccc(=O)[nH]c2=O)OC1COC(c1ccccc1)(c1ccccc1)c1ccccc1` (stereo not shown) [drawing 56 Ph3CO, 1-[4-(tert-Butyl-dimethyl-silanyloxy)-5-trityloxymethyl-tetrahydro-furan-2-yl]-1H pyrimidine-2,4-dione], in data set [1], the pKi is 3.29. Also, in the data set with Plasmodium falciparum, the pEC50 was 6.00.

For the compound `CC(C)(C)[Si](C)(C)OC1C[C@H](n2ccc(=O)[nH]c2=O)O[C@@H]1CNC(c1ccccc1)(c1ccccc1)c1ccccc1` (stereo partly shown) [drawing 56 Ph3NH, 3′-O-tertbutyldimethylsilyl-5′-Tritylamino-2′,5-dideoxyuridine], the pKi in data set [1] is 3.50. Moreover, in the data set with Plasmodium falciparum, the pEC50 is 5.74.

`CC(C)(C)[Si](OCC1C=CC(n2ccc(=O)[nH]c2=O)O1)(c1ccccc1)c1ccccc1` (stereo not shown) [drawing 57 TBDPSO, 5′-O-tert-butyldiphenylsilyl-2′,3′-dideoxydidehydrouridine]: the pKi in data set [1] (setting [2]) was 5.92. In addition, the pEC50 in the data set with Plasmodium falciparum is 5.52.

`O=c1ccn([C@H]2C=C[C@@H](CO[Si](c3ccccc3)(c3ccccc3)c3ccccc3)O2)c(=O)[nH]1` [drawing 57 TPSO, 5′-Triphenylsilyloxy-2′,3′-dideoxydidehydrouridine] gave a pKi in data set [1] of 5.89. The pEC50 with Plasmodium falciparum is 6.00.

As for `O=c1ccn([C@H]2C[C@H](F)[C@@H](COC(c3ccccc3)(c3ccccc3)c3ccccc3)O2)c(=O)[nH]1` [drawing 58 Ph3CO, 3′-Fluoro-5′-O-trityl-2′,3′-dideoxyuridine], the pKi in data set [1] (setting [2]) was 5.30. In the data set on Plasmodium falciparum, the pEC50 is 5.70.

Compound `O=c1ccn([C@H]2C[C@H](F)[C@@H](CNC(c3ccccc3)(c3ccccc3)c3ccccc3)O2)c(=O)[nH]1` [drawing 58 Ph3NH, 3′-Fluoro-5′-tritylamino-2′,3′,5′-trideoxyuridine] had a pKi in data set [1] of 4.92. Moreover, in the data set on Plasmodium falciparum, the pEC50 is 5.28.

On to `CC(C)(C)[Si](OC[C@H]1O[C@@H](n2ccc(=O)[nH]c2=O)CC1F)(c1ccccc1)c1ccccc1` (stereo partly shown) [drawing 58 TBDPSO, 3′-Fluoro-5′-O-tert-Butyidiphenylsilyl-2′,3′-dideoxyuridine], for which, in data set [1], the pKi was 4.05. In addition, in the data set on Plasmodium falciparum, the pEC50 is 5.06.

Regarding `O=c1ccn([C@H]2C[C@H](F)[C@@H](CO[Si](c3ccccc3)(c3ccccc3)c3ccccc3)O2)c(=O)[nH]1` [drawing 58 TPSO, 3′-Fluoro-5′-O-triphenylsilyl-2′,3′-dideoxyuridine], the pKi in data set [1] is 3.01. Besides, the pEC50 with Plasmodium falciparum is 6.00.
